We go through 28 molecules from patent US10988477B2 (Merck Patent GmbH, priority 2018, dated 2021).

By IC50 is commonly meant the concentration that gives 50% inhibition. A high value points to a need for much substance.

One experiment concerns the target GCN2 kinase (Homo sapiens, UniProt Q9P2K8). The experiment can be described thus: GCN2 enzyme inhibition assay (Transcreener ADP2 fluorescence polarization). The class given is biochemical. As to conditions: 280 μM ATP. The gist of the method: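 Inhibition of 4 nM GCN2 was measured with compound up to 8 μM final, ATP 280 μM and (RS)7 peptide 200 μM over a 1 h, 25 °C reaction. ADP FP readout; IC50 and Ki(app) calculated from percent inhibition.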
(In fluorescence polarisation assays a small probe gives low polarisation when free and higher when bound to something large.)

Experiment [1] concerns the target intracellular GCN2 (phosphorylation of the GCN2 substrate eIF2α) (Homo sapiens, UniProt Q9P2K8). The experiment can be described thus: GCN2 cellular inhibition assay (AlphaScreen SureFire P-eIF2α Ser51, borrelidin-treated U2OS cells). To be noted: biomarker assay, phosphorylated eIF2α Ser51 in borrelidin-treated U2OS cells. The class given is cell-based. The method, boiled down:
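First, U2OS cells are plated and left overnight at 37 °C. Next, compounds (from 40 μM final, 4-fold steps) and 10 μM borrelidin are added for 1 h, cells lysed, and phospho-Ser51 eIF2α detected by AlphaScreen bead sandwich. Inhibition is computed versus borrelidin-only wells.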

Setting [2] is: Enzyme activity for compounds of Formula IV, Ki(app), 25° C.
Where [3] appears, read: compounds of Formula II, 4 nM GCN2 kinase.

Sequence of intracellular GCN2 (phosphorylation of the GCN2 substrate eIF2α) (Q9P2K8 whole entry): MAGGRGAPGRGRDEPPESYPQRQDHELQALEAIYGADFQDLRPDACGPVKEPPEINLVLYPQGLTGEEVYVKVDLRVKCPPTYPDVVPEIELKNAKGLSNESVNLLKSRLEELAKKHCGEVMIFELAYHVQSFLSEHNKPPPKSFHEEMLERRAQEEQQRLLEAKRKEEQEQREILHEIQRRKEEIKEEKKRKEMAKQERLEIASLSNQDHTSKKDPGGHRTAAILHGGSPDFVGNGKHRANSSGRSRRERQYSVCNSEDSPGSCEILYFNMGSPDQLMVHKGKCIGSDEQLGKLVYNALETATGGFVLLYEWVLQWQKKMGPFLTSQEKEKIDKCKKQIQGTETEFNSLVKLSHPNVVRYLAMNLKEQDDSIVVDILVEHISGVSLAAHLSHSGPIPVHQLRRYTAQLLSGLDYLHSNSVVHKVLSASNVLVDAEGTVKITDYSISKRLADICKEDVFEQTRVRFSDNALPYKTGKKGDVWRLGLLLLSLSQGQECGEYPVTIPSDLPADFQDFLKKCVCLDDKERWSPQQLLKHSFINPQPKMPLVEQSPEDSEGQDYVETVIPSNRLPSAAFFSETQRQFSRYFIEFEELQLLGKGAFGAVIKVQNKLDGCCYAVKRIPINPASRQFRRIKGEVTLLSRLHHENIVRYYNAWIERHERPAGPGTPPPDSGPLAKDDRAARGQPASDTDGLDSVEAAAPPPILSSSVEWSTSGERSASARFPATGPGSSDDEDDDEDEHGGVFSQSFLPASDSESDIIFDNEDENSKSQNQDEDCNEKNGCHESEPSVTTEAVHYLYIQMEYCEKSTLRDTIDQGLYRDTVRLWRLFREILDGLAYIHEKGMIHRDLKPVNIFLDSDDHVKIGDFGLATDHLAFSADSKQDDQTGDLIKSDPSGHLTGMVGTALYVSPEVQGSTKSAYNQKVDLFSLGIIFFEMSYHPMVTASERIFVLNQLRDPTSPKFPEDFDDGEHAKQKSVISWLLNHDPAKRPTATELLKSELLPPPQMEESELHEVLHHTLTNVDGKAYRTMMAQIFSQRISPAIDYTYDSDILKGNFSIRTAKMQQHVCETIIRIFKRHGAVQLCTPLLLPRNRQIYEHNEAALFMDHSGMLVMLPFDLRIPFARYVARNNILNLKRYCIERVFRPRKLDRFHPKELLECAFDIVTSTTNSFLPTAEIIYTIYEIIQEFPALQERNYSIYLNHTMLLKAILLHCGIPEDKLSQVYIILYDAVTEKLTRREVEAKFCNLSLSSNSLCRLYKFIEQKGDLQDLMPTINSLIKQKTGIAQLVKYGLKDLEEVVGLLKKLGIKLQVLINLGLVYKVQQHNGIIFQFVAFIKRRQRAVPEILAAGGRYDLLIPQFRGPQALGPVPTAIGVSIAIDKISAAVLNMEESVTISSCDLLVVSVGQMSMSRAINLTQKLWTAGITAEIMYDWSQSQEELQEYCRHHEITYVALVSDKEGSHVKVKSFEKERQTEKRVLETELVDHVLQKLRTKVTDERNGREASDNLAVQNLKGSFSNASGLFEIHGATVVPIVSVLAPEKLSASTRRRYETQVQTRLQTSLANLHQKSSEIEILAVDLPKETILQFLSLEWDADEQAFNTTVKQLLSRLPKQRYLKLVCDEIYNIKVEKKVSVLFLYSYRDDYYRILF
Sequence of GCN2 kinase (Q9P2K8 whole entry): as above

In the case of `Cc1n[nH]cc1[C@@H]1C[C@H](O)CN(c2ccnc(-c3cnc4cnc(C(F)(F)F)cn34)n2)C1` [IV-777, (3S,5S)-5-(3-methyl-1H-pyrazol-4-yl)-1-(2-(6-(trifluoromethyl)imidazo[1,2-a]pyrazin-3-yl)pyrimidin-4-yl)piperidin-3-ol], the IC50 was in the range of 10 to 1000 nM on GCN2 kinase (compounds of Formula IV, 4 nM GCN2 kinase) and 500 to 5000 nM in experiment [1] (compounds of Formula IV).

`CC1CN(c2ccnc(-c3cnc4cnc(C(F)(F)F)cn34)n2)CC(c2cn[nH]c2)N1C` (centres unmarked) [IV-195, 3-(4-(3,4-Dimethyl-5-(1H-pyrazol-4-yl)piperazin-1-yl)pyrimidin-2-yl)-6-(trifluoromethyl)imidazo[1,2-a]pyrazine] displayed a Ki at GCN2 kinase (setting [2]) of 10 to 100 nM. This molecule showed an IC50 in experiment [1] (compounds of Formula IV) of 500 to 5000 nM.

As for `NC(=O)CCC1CCCN(c2cc(-c3cnc4ccc(C(F)F)nn34)ncn2)C1` (centres unmarked) [II-214, 3-(1-(6-(6-(Difluoromethyl)imidazo[1,2-b]pyridazin-3-yl)pyrimidin-4-yl)piperidin-3-yl)propanamide], the Ki on GCN2 kinase (setting [3]) was 10 to 1000 nM. For the same molecule, the IC50 in experiment [1] (compounds of Formula II) was in the range of 500 to 5000 nM.

Regarding `CC1CN(c2cncc(-c3cnc4cnc(C(F)(F)F)cn34)n2)C(C)C(c2cn[nH]c2)N1` (single isomer, unassigned) [IV-649, 3-(6-(2,5-Dimethyl-3-(1H-pyrazol-4-yl)piperazin-1-yl)pyrazin-2-yl)-6-(trifluoromethyl)imidazo[1,2-a]pyrazine], the Ki at GCN2 kinase (setting [2]) is 100 to 1000 nM. For the same molecule, in experiment [1] (compounds of Formula IV), the IC50 was above 5000 nM.

As to `CC1NCCN(c2cc(-c3cnc4ccc(C(F)(F)F)nn34)ncn2)C1c1cn[nH]c1` (centres unmarked) [II-707, 3-(6-(3-Methyl-2-(1H-pyrazol-4-yl)piperazin-1-yl)pyrimidin-4-yl)-6-(trifluoromethyl)imidazo[1,2-b]pyridazine], on GCN2 kinase (setting [3]), the Ki is 10 to 1000 nM. In experiment [1] (compounds of Formula II), this molecule yielded an IC50 above 5000 nM.

`CC1C(CNS(C)(=O)=O)CCCN1c1cc(-c2cnc3ccc(C(F)F)nn23)ncn1` (centres unmarked) [II-221, N-((1-(6-(6-(Difluoromethyl)imidazo[1,2-b]pyridazin-3-yl)pyrimidin-4-yl)-2-methylpiperidin-3-yl)methyl)methanesulfonamide] gave a Ki on GCN2 kinase (setting [3]) below 10 nM. The molecule also displayed an IC50 in experiment [1] (compounds of Formula II) below 500 nM.

At GCN2 kinase (setting [2]), `CC1C(c2c[nH]cn2)CCCN1c1ccnc(-c2cnc3cnc(C(F)(F)F)cn23)n1` (centres unmarked) [IV-389, 3-(4-(3-(1H-Imidazol-4-yl)-2-methylpiperidin-1-yl)pyrimidin-2-yl)-6-(trifluoromethyl)imidazo[1,2-a]pyrazine] gave a Ki below 10 nM. In experiment [1] (compounds of Formula IV), this molecule yielded an IC50 of 500 to 5000 nM.

At GCN2 kinase (setting [2]), `N#Cc1cn2c(-c3nccc(N4CCCC(c5c[nH]cn5)C4)n3)cnc2cn1` (centres unmarked) [IV-341, 3-(4-(3-(1H-Imidazol-4-yl)piperidin-1-yl)pyrimidin-2-yl)imidazo[1,2-a]pyrazine-6-carbonitrile] showed a Ki of 10 to 100 nM. In addition, in experiment [1] (compounds of Formula IV), the IC50 is above 5000 nM.

On GCN2 kinase (setting [3]), `NS(=O)(=O)CCC1CN(c2cc(-c3cnc4ccc(C(F)F)nn34)ncn2)CCO1` (centres unmarked) [II-318, 2-(4-(6-(6-(Difluoromethyl)imidazo[1,2-b]pyridazin-3-yl)pyrimidin-4-yl)morpholin-2-yl)ethane-1-sulfonamide] registered a Ki of 10 to 1000 nM. In experiment [1] (compounds of Formula II), this molecule yielded an IC50 of 500 to 5000 nM.

Regarding `O=C1NCC2(CCCN(c3ccnc(-c4cnc5cnc(C(F)F)cn45)n3)CC2)O1` (centres unmarked) [IV-87, 8-(2-(6-(Difluoromethyl)imidazo[1,2-a]pyrazin-3-yl)pyrimidin-4-yl)-1-oxa-3,8-diazaspiro[4.6]undecan-2-one], the Ki on GCN2 kinase (setting [2]) was 100 to 1000 nM. In experiment [1] (compounds of Formula IV), this molecule showed an IC50 above 5000 nM.

For `N#Cc1cn2c(-c3cccc(-c4cccc5[nH]ccc45)n3)cnc2cn1` [IV-234, 3-(6-(1H-Indol-4-yl)pyridin-2-yl)imidazo[1,2-a]pyrazine-6-carbonitrile], at GCN2 kinase (setting [2]), the Ki is 10 to 100 nM. In addition, the IC50 in experiment [1] (compounds of Formula IV) was above 5000 nM.

In the case of `CC1C(CO)OCCN1c1cc(-c2cnc3ccc(C(F)F)nn23)ncn1` (centres unmarked) [II-341, (4-(6-(6-(Difluoromethyl)imidazo[1,2-b]pyridazin-3-yl)pyrimidin-4-yl)-3-methylmorpholin-2-yl)methanol], at GCN2 kinase (setting [3]), the Ki is 10 to 1000 nM. For the same molecule, the IC50 in experiment [1] (compounds of Formula II) is above 5000 nM.

`Cc1[nH]ncc1C1CCCN(c2ccnc(-c3cnc4cnc(C(F)(F)F)cn34)n2)C1` (centres unmarked) [IV-452, 3-(4-(3-(5-Methyl-1H-pyrazol-4-yl)piperidin-1-yl)pyrimidin-2-yl)-6-(trifluoromethyl)imidazo[1,2-a]pyrazine] showed a Ki on GCN2 kinase (setting [2]) below 10 nM. In experiment [1] (compounds of Formula IV), this molecule gave an IC50 of 500 to 5000 nM.

The molecule `FC(F)(F)c1cn2c(-c3nccc(N4CCCC(c5cc[nH]n5)C4)n3)cnc2cn1` (centres unmarked) [IV-589, 3-(4-(3-(1H-Pyrazol-3-yl)piperidin-1-yl)pyrimidin-2-yl)-6-(trifluoromethyl)imidazo[1,2-a]pyrazine] registered a Ki at GCN2 kinase (setting [2]) of 10 to 100 nM. The IC50 in experiment [1] (compounds of Formula IV) fell in the range of 500 to 5000 nM.

At GCN2 kinase (setting [2]), `FC(F)c1cn2c(-c3nccc(N4CCCC5CCCC54)n3)cnc2cn1` (centres unmarked) [IV-130, 6-(Difluoromethyl)-3-(4-(octahydro-1H-cyclopenta[b]pyridin-1-yl)pyrimidin-2-yl)imidazo[1,2-a]pyrazine] gave a Ki of 100 to 1000 nM. In experiment [1] (compounds of Formula IV), this molecule gave an IC50 above 5000 nM.

`CC1C(CNS(C)(=O)=O)CC(F)(F)CN1c1cc(-c2cnc3ccc(C(F)F)nn23)ncn1` (single isomer, unassigned) [II-360, N-((1-(6-(6-(Difluoromethyl)imidazo[1,2-b]pyridazin-3-yl)pyrimidin-4-yl)-5,5-difluoro-2-methylpiperidin-3-yl)methyl)methanesulfonamide] displayed a Ki at GCN2 kinase (setting [3]) of 10 to 1000 nM. In addition, the IC50 in experiment [1] (compounds of Formula II) lay in the range of 500 to 5000 nM.

In turn, `CS(=O)(=O)NC1(C2CCN(c3cc(-c4cnc5ccc(C(F)F)nn45)ncn3)C2)CC1` (centres unmarked) [II-439, N-(1-(1-(6-(6-(Difluoromethyl)imidazo[1,2-b]pyridazin-3-yl)pyrimidin-4-yl)pyrrolidin-3-yl)cyclopropyl)methanesulfonamide] came in with a Ki at GCN2 kinase (setting [3]) of 10 to 1000 nM. In experiment [1] (compounds of Formula II), this molecule yielded an IC50 of 500 to 5000 nM.

The molecule `CC1CC(N=S(C)(C)=O)CN(c2cc(-c3cnc4ccc(C(N)=O)nn34)ncn2)C1` (centres unmarked) [II-726, 3-(6-(3-((Dimethyl(oxo)-λ^6-sulfanylidene)amino)-5-methylpiperidin-1-yl)pyrimidin-4-yl)imidazo[1,2-b]pyridazine-6-carboxamide] came in with a Ki at GCN2 kinase (setting [3]) of 10 to 1000 nM. This molecule came in with an IC50 in experiment [1] (compounds of Formula II) above 5000 nM.

Take `COc1cc(-c2cnc3ccc(C(F)F)nn23)cc(N2CCCC(CNS(C)(=O)=O)C2)n1` (centres unmarked) [II-142, N-((1-(4-(6-(Difluoromethyl)imidazo[1,2-b]pyridazin-3-yl)-6-methoxypyridin-2-yl)piperidin-3-yl)methyl)methanesulfonamide]: the Ki at GCN2 kinase (setting [3]) was below 10 nM. The molecule also gave an IC50 in experiment [1] (compounds of Formula II) of 500 to 5000 nM.

Take `CC(=O)N1CCN(c2cc(-c3cnc4ccc(N5CCOCC5)nn34)ccn2)CC1` [II-738, 1-(4-(4-(6-morpholinoimidazo[1,2-b]pyridazin-3-yl)pyridin-2-yl)piperazin-1-yl)ethan-1-one]: at GCN2 kinase (setting [3]), the Ki was above 1000 nM. This molecule also showed an IC50 in experiment [1] (compounds of Formula II) above 5000 nM.

On GCN2 kinase (setting [3]), `CC1NCCN(c2cc(-c3cnc4ccc(C(F)F)nn34)ncn2)C1CNS(C)(=O)=O` (centres unmarked) [II-336, N-((1-(6-(6-(Difluoromethyl)imidazo[1,2-b]pyridazin-3-yl)pyrimidin-4-yl)-3-methylpiperazin-2-yl)methyl)methanesulfonamide] showed a Ki above 1000 nM. The molecule further returned an IC50 in experiment [1] (compounds of Formula II) above 5000 nM.

At GCN2 kinase (setting [3]), `CC1CN(c2cc(-c3cnc4ccc(C(F)F)nn34)ncn2)CC(CNS(C)(=O)=O)C1(F)F` (centres unmarked) [II-35, N-((1-(6-(6-(Difluoromethyl)imidazo[1,2-b]pyridazin-3-yl)pyrimidin-4-yl)-4,4-difluoro-5-methylpiperidin-3-yl)methyl)methanesulfonamide] had a Ki of 10 to 1000 nM. Moreover, the concentration for half-maximal inhibition (IC50) in experiment [1] (compounds of Formula II) lay in the range of 500 to 5000 nM.

In turn, `NCC1CCCN(c2ccnc(-c3cnc4cnc(C(F)F)cn34)n2)C1` (centres unmarked) [IV-143, (1-(2-(6-(Difluoromethyl)imidazo[1,2-a]pyrazin-3-yl)pyrimidin-4-yl)piperidin-3-yl)methanamine] yielded a Ki at GCN2 kinase (setting [2]) of 100 to 1000 nM. For the same molecule, the IC50 in experiment [1] (compounds of Formula IV) is above 5000 nM.

Molecule `NS(=O)(=O)CC1CCCN(c2ccnc(-c3cnc4cnc(C(F)F)cn34)n2)C1` (centres unmarked) [IV-114, (1-(2-(6-(Difluoromethyl)imidazo[1,2-a]pyrazin-3-yl)pyrimidin-4-yl)piperidin-3-yl)methanesulfonamide] had a Ki on GCN2 kinase (setting [2]) of 100 to 1000 nM. The molecule further displayed an IC50 in experiment [1] (compounds of Formula IV) above 5000 nM.

Take `CS(=O)(=O)NCC1(F)CCCN(c2cc(-c3cnc4ccc(C(F)F)nn34)ccn2)C1` (centres unmarked) [II-139, N-((1-(4-(6-(Difluoromethyl)imidazo[1,2-b]pyridazin-3-yl)pyridin-2-yl)-3-fluoropiperidin-3-yl)methyl)methanesulfonamide]: the Ki at GCN2 kinase (setting [3]) lay within 10 to 1000 nM. Moreover, the IC50 in experiment [1] (compounds of Formula II) is 500 to 5000 nM.

`OCCC1CN(c2cc(-c3cnc4ccc(C(F)F)nn34)ccn2)CCO1` (centres unmarked) [II-146, 2-(4-(4-(6-(Difluoromethyl)imidazo[1,2-b]pyridazin-3-yl)pyridin-2-yl)morpholin-2-yl)ethanol]: the Ki at GCN2 kinase (setting [3]) lay within 10 to 1000 nM. The IC50 in experiment [1] (compounds of Formula II) lay within 500 to 5000 nM.

For the molecule `FC(F)c1cn2c(-c3nccc(N4CCCC(c5nn[nH]n5)C4)n3)cnc2cn1` (centres unmarked) [IV-51, 3-(4-(3-(2H-Tetrazol-5-yl)piperidin-1-yl)pyrimidin-2-yl)-6-(difluoromethyl)imidazo[1,2-a]pyrazine], at GCN2 kinase (setting [2]), the Ki was 100 to 1000 nM. For the same molecule, the IC50 in experiment [1] (compounds of Formula IV) is above 5000 nM.

In turn, `CS(=O)(=O)NCC1CN(c2cc(-c3cnc4ccc(C(F)F)nn34)ncn2)CCC1O` (centres unmarked) [II-112, N-((1-(6-(6-(Difluoromethyl)imidazo[1,2-b]pyridazin-3-yl)pyrimidin-4-yl)-4-hydroxypiperidin-3-yl)methyl)methanesulfonamide] displayed a Ki at GCN2 kinase (setting [3]) below 10 nM. The molecule further yielded an IC50 in experiment [1] (compounds of Formula II) of 500 to 5000 nM.
